Here are results for four compounds from patent US9809623B2, “α4β7 peptide monomer and dimer antagonists” (Protagonist Therapeutics, Inc., priority 2014, dated 2017).

Read-outs that look alike come from different tables or passages of the source. Numbered stars: 1 amine (or outer) side, 2 acyl side, 3 side chain; on linkers, the order of the positions; unused ones are H or OH. Bridge positions count the residues as written; N and C are the ends. Square brackets hold non-standard residues; d marks the D form. Peptide text beside a SMILES is read from it. I, II: the chains in the order shown. Phe(4-tBu) = CC(C)(C)c1ccc(C[C@H](N)C(=O)O)cc1; 2Nal = N[C@@H](Cc1ccc2ccccc2c1)C(=O)O; Diglycolyl = O=C(COCC(=O)[*:2])[*:1]; NMeR = CN[C@@H](CCCNC(=N)N)C(=O)O; β3hE = N[C@@H](CCC(=O)O)CC(=O)O; Pen = CC(C)(S)[C@H](N)C(=O)O

In general, IC50 refers to the midpoint of a concentration-inhibition curve.

The target in data set [1] is T1, α4β1 (Homo sapiens, UniProt P05556+P13612, DEL729-798).
T1 construct: purchased R&D Systems 5668-A4
T1 sequence (P13612 34-977 limits assumed, stated change not applied): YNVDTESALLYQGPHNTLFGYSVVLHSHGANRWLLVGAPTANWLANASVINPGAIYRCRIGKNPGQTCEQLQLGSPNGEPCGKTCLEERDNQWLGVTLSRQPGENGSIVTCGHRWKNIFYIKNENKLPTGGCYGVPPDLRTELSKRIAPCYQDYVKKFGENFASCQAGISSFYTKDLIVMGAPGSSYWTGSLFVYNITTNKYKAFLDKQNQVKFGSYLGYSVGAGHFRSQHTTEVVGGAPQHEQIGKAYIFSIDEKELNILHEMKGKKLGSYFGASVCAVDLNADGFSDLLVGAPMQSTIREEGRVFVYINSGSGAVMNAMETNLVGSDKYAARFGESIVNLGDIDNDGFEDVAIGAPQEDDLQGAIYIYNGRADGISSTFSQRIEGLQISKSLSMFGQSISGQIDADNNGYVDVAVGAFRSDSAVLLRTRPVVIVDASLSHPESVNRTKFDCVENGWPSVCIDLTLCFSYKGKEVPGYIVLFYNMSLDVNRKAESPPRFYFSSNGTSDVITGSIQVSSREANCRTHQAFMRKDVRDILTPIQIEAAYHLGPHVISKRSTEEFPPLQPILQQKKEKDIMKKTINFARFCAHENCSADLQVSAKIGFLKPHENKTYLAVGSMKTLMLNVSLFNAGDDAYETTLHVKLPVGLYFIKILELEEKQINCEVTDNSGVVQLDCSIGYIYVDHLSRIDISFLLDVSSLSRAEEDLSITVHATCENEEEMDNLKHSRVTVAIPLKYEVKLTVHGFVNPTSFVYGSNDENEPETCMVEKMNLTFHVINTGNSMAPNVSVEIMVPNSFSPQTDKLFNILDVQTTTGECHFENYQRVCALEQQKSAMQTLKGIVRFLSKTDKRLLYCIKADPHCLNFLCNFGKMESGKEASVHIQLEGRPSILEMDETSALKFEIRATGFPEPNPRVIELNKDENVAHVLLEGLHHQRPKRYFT
T1 sequence (P05556 21-728 limits assumed, stated change not applied): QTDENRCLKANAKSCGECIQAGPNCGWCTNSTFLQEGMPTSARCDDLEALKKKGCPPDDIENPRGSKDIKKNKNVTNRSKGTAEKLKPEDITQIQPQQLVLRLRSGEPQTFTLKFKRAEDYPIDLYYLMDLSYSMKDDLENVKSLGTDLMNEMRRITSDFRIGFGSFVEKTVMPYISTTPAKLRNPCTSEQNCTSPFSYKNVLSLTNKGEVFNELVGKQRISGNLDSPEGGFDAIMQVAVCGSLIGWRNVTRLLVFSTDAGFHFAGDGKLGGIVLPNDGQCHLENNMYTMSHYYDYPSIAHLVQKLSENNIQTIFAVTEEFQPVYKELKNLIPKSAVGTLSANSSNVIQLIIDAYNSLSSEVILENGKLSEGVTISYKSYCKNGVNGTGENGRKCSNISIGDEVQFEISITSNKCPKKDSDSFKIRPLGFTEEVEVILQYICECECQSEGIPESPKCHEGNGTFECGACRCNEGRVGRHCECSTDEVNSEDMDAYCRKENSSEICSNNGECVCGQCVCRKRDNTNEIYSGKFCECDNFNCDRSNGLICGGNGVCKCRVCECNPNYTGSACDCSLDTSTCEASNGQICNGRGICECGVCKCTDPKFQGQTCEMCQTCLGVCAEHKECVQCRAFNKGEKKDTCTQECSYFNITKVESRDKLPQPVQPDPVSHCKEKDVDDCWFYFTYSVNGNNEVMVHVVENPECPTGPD
Briefly: α4β1-VCAM Competition ELISA. Conditions: Table 3-B, Selectivity (α4β1); range classes; read-out: α4β1 ELISA IC50. The data set is classed as binding. Summed up: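 Recombinant α4β1 (60 nM final) competed with serially diluted peptides (top final 100 μM) for VCAM-1 Fc coated at 400 ng/well, in Tris pH 7.6 with 1 mM MnCl2 or MgCl2, for 2 h at 37 °C. Bound integrin was detected with anti-CD49d 9F10 plus HRP anti-mouse IgG, using TMB read at 450 nm.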

In data set [2] the target is α4β1 (Homo sapiens, UniProt P05556+P13612). Briefly: α4β1-VCAM Cell Adhesion Assay (Jurkat E6.1 human cells). The data set is classed as cell-based. On the set-up: host or cells: Jurkat E6.1 human T cells. The conditions noted are these: Table 3-B, Selectivity (α4β1); range classes; read-out: α4β1 cell IC50. On the procedure:
Jurkat E6.1 human cells (Sigma #88042803) were cultured in RPMI 1640 HEPES medium (Invitrogen #22400-089) supplemented with 10% serum (Fetal Bovine Serum, Invitrogen #16140-071), 1 mM sodium pyruvate (Invitrogen #11360-070), 2 mM L-glutamine (Invitrogen #25030-081) and Penicillin-Streptomycin (Invitrogen #15140-122) at 100 units of penicillin and 100 μg of streptomycin per ml. The cells were washed two times in DMEM medium (ATCC #30-2002) supplemented with 0.1% BSA, 10 mM HEPES pH 7 and 1 mM MnCl2. The cells were re-suspended in supplemented DMEM medium at a density of 4×10^6 cells/ml.
A Nunc MaxiSorp plate was coated with rh VCAM-1/CD106 Fc chimera (R&D #862-VC) at 400 ng per well in 50 ul per well in 1×PBS and incubated at 4° C. overnight. The solution was then removed by shaking, blocked with 250 ul per well PBS containing 1% BSA, and incubated at 37° C. for 1 hr. The solution was removed by shaking. Peptides were diluted by serial dilution in a final volume of 50 ul per well (2× concentration). To each well, 50 ul of cells (200,000 cells) were added and the plate was incubated at 37° C., 5% CO2 for 30-45 min to allow cell adhesion. The wells were washed manually three times (100 ul per wash) with supplemented DMEM. After the final wash, 100 ul/well of supplemented DMEM and 10 ul/well of MTT reagent (ATTC cat#30-1010K) were added. The plate was incubated at 37° C., 5% CO2 for 2-3 hrs until a purple precipitate was visible. 100 ul of Detergent Reagent (ATTC cat#30-1010K) was added to each well. The plate was covered from the light, wrapped in Parafilm to prevent evaporation, and left overnight at room temperature in the dark. The plate was shaken for 5 min and the absorbance at 570 nm was measured. To calculate the dose response, the absorbance value of control wells not containing cells was subtracted from each test well.

The target in data set [3] is T2, α4β7 (Homo sapiens, UniProt P13612+P26010). Briefly: PBMC Memory T Cell Adhesion Assay, adhesion to MAdCAM-1. The data set is classed as cell-based. Conditions: Table 3-B; range classes; read-out: PBMC IC50. On the procedure:
Fresh CD4+/CD45RO+ memory T cells were isolated from human peripheral blood mononuclear cell (PBMC) donors by Aragen Bioscience Inc. (Morgan Hill, Calif.). The assay plate was prepared using IgG Fc capture antibody (donkey anti human) immobilized at 500 ng/well in 50 mM sodium bicarbonate buffer, pH 9.5, ON, 4C onto a Greiner Fluotrac plate (100 ul per well). The plate was rinsed two time with Blocking Buffer (25 mM Tris HCl, pH7.5, 150 mM NaCl, 1.5% BSA, 0.05% Tween), and blocked with Blocking Buffer for 2 hours at 37 C or 5 hours at RT using 200 ul per well. The Blocking Buffer was removed and either MAdCAM-1 or VCAM-1 at 400 ng/well in Blocking Buffer was added and the plate incubated overnight at 4C (100 ul per well). The plate was washed two times with Blocking Buffer, and rinsed once with 200 ul Binding Media (DMEM phenol red free, 10 mM HEPES, 1×Na pyruvate, 1× Glutamine, and supplemented with 1 mM MnCl2 prior to use). To prepare cells, approximately 25 million CD4+/CD45RO+ memory T cells were counted by trypan blue exclusion using a haemocytometer to determine viability and cell count. The cells were transferred to a 50 ml conical tube, and centrifuged at 1200 rpm for 10 minute. The media was aspirated and the cell pellet resuspended in 15 ml Binding Media. The cells were centrifuged again and resuspended in the appropriate amount of Binding Media to be used for assays (50 ul of cells per well at 2× the final density). To each well, and equal volume (50 ul) of test compound was added and the plate was incubated for 1.5 hours at 37 C, 5% CO2. Each well was rinsed 3× with 150 ul per well of Binding Media. […] The plate was incubated at 37 C, 5% CO2, for 45 minutes. The plate was protected from light by using black adhesive seals. Fluorescence intensity was measured using a Molecular Devices Gemini EM Fluorescent Plate Reader (Ex 485/Em530, Bottom Read, Reading Sensitivity=20). IC50 curves are generated using Graph Pad Prism and the curves analyzed using analyzed using a non-linear regression (four parameters) algorithm. The log (concentration) versus RFU (Ex485/Em530) was plotted to determine IC50 values.

Data set [4] in a line: Simulated Intestinal Fluid (SIF) Stability Assay. The data set is classed as in vitro ADME, porcine. The conditions noted are these: pig, simulated intestinal fluid (SIF) with 1% porcine pancreatin. Summed up:
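Peptides (22 μM final) incubated at 37 °C in FASSIF (pH 6.5) with 1% porcine pancreatin; aliquots quenched at various times and analyzed by LC-MS/MS against internal standard. Half-life from first-order exponential decay fit of percent remaining.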

Data set [5] concerns the target T2, α4β7. Briefly: α4β7-MAdCAM Cell Adhesion Assay (RPMI 8866 human cells). The data set is classed as cell-based. On the set-up: host or cells: RPMI 8866 human B lymphoblastoid cells. The conditions noted are these: Table 3-B, Potency (α4β7); range classes; read-out: α4β7 cell (Hu) IC50. The method in brief: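 Washed RPMI 8866 cells (200,000/well) in DMEM with 0.1% BSA, 10 mM HEPES pH 7, 1 mM MnCl2 adhered to rh MAdCAM-1/Fc-coated wells with serially diluted peptides, 30-45 min at 37 °C. After three washes, bound cells quantified by MTT, A570, cell-free background subtracted for dose response.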

The next data set has as its target T3, rh integrin α4β7 (Homo sapiens, UniProt P13612+P26010).
T3 construct: purchased R&D Systems 5397-A30
Briefly: α4β7-MAdCAM Competition ELISA. Conditions: Table 4-B; read-out: ELISA α4β7 IC50. In kind it is binding. The method in brief: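 Recombinant human α4β7 was captured on nickel plates at 800 ng/well. Peptide in 3-fold serial dilution (final top 10 μM) competed with MAdCAM-1 (final 10 nM) for 1 h at room temperature in 50 mM Tris pH 7.6, 150 mM NaCl, 1 mM MnCl2 or MgCl2. Bound MAdCAM-1 was detected with anti-human IgG1-HRP/TMB at A450.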
Background: In an ELISA, binding on a coated surface is turned into a signal by an enzyme label.

The nature of data set [6]: Dithiothreitol (DTT) Redox Stability Assay. In kind it is physicochemical. The conditions noted are these: Table 4-C, t1/2, 0.5 mM DTT. On the procedure:
For each peptide tested, the DTT stability assay was conducted by adding 5 μl of a 10 mM peptide stock solution in DMSO to 1 ml of 100 mM Tris-Cl, pH 7.5 (final peptide concentration is 50 μM). At time 0 min, 5 ul of a freshly thawed 100 mM DTT solution was added to the incubation tube containing the peptide, such that the final DTT concentration was 0.5 mM. The reactions were incubated at room temperature. At different time points up to 120 minutes (20 min, 40 min, 80 min, 120 min), 50 ul aliquots were removed, and the reaction was quenched by adding 10 μl of 5M acetic acid. To measure disappearance of the parent peptide, the quenched samples (30 μl) were analyzed by reverse phase HPLC and UV absorbance at 220 nm. The fraction oxidized remaining was graphed versus time, and half-lives were calculated by fitting to a first-order exponential decay equation using Excel.

T2 sequence (P13612 34-1032): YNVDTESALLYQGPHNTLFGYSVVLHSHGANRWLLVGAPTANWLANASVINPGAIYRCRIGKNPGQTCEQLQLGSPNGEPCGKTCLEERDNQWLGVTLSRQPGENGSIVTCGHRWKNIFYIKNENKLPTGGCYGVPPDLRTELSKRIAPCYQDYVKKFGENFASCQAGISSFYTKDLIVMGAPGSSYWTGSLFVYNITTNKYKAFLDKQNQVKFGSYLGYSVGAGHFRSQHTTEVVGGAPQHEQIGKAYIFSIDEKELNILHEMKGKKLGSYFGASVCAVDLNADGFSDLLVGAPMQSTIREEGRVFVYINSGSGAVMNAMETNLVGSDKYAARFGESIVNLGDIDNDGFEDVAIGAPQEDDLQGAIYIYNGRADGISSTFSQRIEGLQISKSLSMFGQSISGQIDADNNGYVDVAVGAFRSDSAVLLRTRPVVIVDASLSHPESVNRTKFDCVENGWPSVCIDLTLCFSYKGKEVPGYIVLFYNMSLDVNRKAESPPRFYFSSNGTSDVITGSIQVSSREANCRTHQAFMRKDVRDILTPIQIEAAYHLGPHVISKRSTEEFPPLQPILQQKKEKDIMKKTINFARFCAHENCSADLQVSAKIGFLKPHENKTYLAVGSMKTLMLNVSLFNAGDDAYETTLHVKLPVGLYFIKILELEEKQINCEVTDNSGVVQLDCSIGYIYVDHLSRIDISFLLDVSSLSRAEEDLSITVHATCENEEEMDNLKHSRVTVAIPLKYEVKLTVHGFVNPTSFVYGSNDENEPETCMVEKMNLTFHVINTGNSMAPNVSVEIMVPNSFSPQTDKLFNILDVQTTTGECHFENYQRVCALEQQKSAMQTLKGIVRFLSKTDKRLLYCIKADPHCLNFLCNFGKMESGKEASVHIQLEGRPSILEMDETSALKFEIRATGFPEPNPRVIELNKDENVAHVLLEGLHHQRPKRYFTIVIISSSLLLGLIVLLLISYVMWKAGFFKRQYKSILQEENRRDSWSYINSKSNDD
T2 sequence (P26010 20-798): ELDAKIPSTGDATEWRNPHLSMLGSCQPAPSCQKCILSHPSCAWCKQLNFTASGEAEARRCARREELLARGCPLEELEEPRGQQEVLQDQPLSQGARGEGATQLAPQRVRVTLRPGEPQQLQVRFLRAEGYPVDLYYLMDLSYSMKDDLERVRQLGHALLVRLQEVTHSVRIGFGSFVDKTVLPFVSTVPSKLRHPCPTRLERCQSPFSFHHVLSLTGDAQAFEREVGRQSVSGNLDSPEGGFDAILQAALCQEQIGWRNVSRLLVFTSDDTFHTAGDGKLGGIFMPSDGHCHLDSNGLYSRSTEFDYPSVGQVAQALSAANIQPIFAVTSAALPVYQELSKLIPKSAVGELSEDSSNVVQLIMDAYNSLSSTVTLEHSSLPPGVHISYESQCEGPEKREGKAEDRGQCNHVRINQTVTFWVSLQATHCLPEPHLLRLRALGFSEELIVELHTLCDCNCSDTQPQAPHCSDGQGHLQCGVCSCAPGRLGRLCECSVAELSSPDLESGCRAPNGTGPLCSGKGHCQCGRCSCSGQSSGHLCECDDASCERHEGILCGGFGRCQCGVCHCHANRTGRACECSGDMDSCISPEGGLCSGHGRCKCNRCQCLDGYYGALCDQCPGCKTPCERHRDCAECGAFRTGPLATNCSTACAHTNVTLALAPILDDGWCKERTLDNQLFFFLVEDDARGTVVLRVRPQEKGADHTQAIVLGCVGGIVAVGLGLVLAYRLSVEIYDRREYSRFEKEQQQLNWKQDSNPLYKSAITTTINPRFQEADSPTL
T3 sequence (P13612 34-977 limits assumed): as the sequence (P13612 34-977 limits assumed, stated change not applied) above
T3 sequence (P26010 20-723 limits assumed): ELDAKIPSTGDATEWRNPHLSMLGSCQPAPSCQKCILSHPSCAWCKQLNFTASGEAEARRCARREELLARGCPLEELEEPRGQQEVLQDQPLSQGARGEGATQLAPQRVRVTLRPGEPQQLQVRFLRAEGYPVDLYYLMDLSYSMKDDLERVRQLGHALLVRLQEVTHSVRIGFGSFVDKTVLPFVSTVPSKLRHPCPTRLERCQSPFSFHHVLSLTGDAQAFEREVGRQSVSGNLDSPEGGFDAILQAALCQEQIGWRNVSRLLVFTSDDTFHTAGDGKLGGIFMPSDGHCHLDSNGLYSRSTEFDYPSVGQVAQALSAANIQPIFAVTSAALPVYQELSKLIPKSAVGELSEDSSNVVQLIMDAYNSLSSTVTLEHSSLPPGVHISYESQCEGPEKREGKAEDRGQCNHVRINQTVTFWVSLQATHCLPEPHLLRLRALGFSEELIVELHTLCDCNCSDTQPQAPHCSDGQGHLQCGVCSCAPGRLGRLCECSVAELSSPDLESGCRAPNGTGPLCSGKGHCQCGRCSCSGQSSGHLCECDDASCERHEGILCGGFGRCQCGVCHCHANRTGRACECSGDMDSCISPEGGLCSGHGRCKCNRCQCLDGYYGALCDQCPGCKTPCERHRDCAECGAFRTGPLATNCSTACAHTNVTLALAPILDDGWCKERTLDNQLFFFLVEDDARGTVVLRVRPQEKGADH
α4β1 (Homo sapiens, UniProt P05556+P13612), sequence (P13612 34-1032): as the sequence (P13612 34-1032) above
α4β1 (Homo sapiens, UniProt P05556+P13612), sequence (P05556 21-798): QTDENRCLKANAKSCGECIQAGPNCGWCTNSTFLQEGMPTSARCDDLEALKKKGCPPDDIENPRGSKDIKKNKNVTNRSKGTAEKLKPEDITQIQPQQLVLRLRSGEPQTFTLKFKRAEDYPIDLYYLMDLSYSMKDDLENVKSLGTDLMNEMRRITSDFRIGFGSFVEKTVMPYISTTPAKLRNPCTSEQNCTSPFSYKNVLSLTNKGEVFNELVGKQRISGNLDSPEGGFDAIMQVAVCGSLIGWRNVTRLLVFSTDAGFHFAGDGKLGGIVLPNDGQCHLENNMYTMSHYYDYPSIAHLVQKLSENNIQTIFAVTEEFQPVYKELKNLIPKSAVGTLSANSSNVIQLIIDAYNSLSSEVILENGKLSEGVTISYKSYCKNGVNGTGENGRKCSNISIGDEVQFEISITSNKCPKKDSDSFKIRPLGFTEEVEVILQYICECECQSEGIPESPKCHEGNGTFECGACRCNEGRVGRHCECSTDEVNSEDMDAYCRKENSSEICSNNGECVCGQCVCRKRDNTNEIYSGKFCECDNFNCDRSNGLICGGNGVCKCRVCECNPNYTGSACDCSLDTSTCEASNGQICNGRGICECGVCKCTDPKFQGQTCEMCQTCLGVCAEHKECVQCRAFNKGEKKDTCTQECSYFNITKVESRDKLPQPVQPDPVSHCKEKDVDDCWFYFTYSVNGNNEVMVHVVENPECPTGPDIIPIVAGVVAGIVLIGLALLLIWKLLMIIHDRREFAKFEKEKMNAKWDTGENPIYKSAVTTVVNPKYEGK

Regarding `CC(=O)N[C@@H]1C(=O)N(C)[C@@H](CCCNC(=N)N)C(=O)N[C@@H](CO)C(=O)N[C@@H](CC(=O)O)C(=O)N[C@@H]([C@@H](C)O)C(=O)N[C@@H](CC(C)C)C(=O)N[C@H](C(=O)N[C@@H](Cc2ccc3ccccc3c2)C(=O)N[C@H](CCC(=O)O)C(=O)N[C@H](CCCCNC(=O)COCC(=O)NCCCC[C@@H](NC(=O)[C@@H](CCC(=O)O)NC(=O)[C@H](Cc2ccc3ccccc3c2)NC(=O)[C@H]2NC(=O)[C@H](CC(C)C)NC(=O)[C@H]([C@@H](C)O)NC(=O)[C@H](CC(=O)O)NC(=O)[C@H](CO)NC(=O)[C@H](CCCNC(=N)N)N(C)C(=O)[C@@H](NC(C)=O)C(C)(C)SSC2(C)C)C(N)=O)C(N)=O)C(C)(C)SSC1(C)C` [compound 33] (I: Ac-[Pen][NMeR]SDTL[Pen][2Nal][dE][dK]-NH2 / II: Ac-[Pen][NMeR]SDTL[Pen][2Nal][dE][dK]-NH2; disulfide I:1-I:7, II:1-II:7; linker I:10-II:10 via Diglycolyl), the IC50 is 100 to 500 nM at α4β1 [1] and greater than 100000 nM at α4β1 [2].
With `CC(=O)N[C@@H]1C(=O)N(C)[C@@H](CCCNC(=N)N)C(=O)N[C@@H](CO)C(=O)N[C@@H](CC(=O)O)C(=O)N[C@@H]([C@@H](C)O)C(=O)N[C@@H](CC(C)C)C(=O)N[C@H](C(=O)N[C@@H](Cc2ccc(C(C)(C)C)cc2)C(=O)N[C@@H](CCC(=O)O)CC(N)=O)C(C)(C)SSC1(C)C` [compound 165] (Ac-[Pen][NMeR]SDTL[Pen][Phe(4-tBu)][β3hE]-NH2; disulfide 1-7), the IC50 was 100 to 500 nM at α4β7 [3] and 10 to 25 nM on α4β7 [5]. In data set [4] (pH 6.5, Table 3-B, > means experiment was stopped at that time and half life was not reached, read-out: Stabilty SIF t1/2), the half-life at 22 μM was greater than 180 min.
Turning to `CC(=O)N[C@@H]1C(=O)N(C)[C@@H](CCCNC(=N)N)C(=O)N[C@@H](CO)C(=O)N[C@@H](CC(=O)O)C(=O)N[C@@H]([C@@H](C)O)C(=O)N[C@@H](CC(C)C)C(=O)N[C@H](C(=O)N[C@@H](Cc2ccc(C(C)(C)C)cc2)C(=O)N[C@@H](CCC(=O)O)CC(=O)N[C@H](CCCCNC(=O)COCC(=O)NCCCC[C@@H](NC(=O)C[C@H](CCC(=O)O)NC(=O)[C@H](Cc2ccc(C(C)(C)C)cc2)NC(=O)[C@H]2NC(=O)[C@H](CC(C)C)NC(=O)[C@H]([C@@H](C)O)NC(=O)[C@H](CC(=O)O)NC(=O)[C@H](CO)NC(=O)[C@H](CCCNC(=N)N)N(C)C(=O)[C@@H](NC(C)=O)C(C)(C)SSC2(C)C)C(=O)O)C(=O)O)C(C)(C)SSC1(C)C` [compound 168] (I: Ac-[Pen][NMeR]SDTL[Pen][Phe(4-tBu)][β3hE][dK]-OH / II: Ac-[Pen][NMeR]SDTL[Pen][Phe(4-tBu)][β3hE][dK]-OH; disulfide I:1-I:7, II:1-II:7; linker I:10-II:10 via Diglycolyl), the IC50 on α4β7 [3] and at α4β7 [5] was less than 10 nM throughout.
Regarding `CC(=O)N[C@@H]1C(=O)N[C@@H](CCCNC(=N)N)C(=O)N[C@@H](CO)C(=O)N[C@@H](CC(=O)O)C(=O)N[C@@H]([C@@H](C)O)C(=O)N[C@@H](CC(C)C)C(=O)N[C@H](C(=O)N[C@H](CCCCN)C(N)=O)CSSC1(C)C` [compound 206, Ac-Pen-R-S-D-T-L-C-k-NH2] (Ac-[Pen]RSDTLC[dK]-NH2; disulfide 1-7), the IC50 on rh integrin α4β7 came out at 97 nM. Moreover, the half-life at 22 μM in data set [4] (pH 6.5, Table 4-C, t1/2, > means assay stopped at that time, read-out: SIF (porcine) Min) is 26 min. In addition, the “DTT Min” value in data set [6] turned out to be 52 min.
